Test results as given in patent publication US20090076120A1, “Crystal of Aminopyrrolidine Derivative and Production Method Thereof” (TEIJIN PHARMA LIMITED, priority 2005, published 2009).
“Also recorded” adds a separate entry of the source.

Assays:
[1] = Storage stability comparison in a thermostatic chamber (HPLC purity, XRD crystal form); assay type: physicochemical; settings: for Purity: HPLC
Source text: Crystal A, crystal B and amorphous form of (R)-3-[2-(2-amino-5-trifluoromethoxybenzamido)acetamido]-1(6-methylindol-3-ylmethyl)pyrrolidine in the amount of 1.50 g, 1.50 g and 0.30 g, respectively were each placed in a transparent glass vial. They were simply covered by filter paper and kept in a thermostatic chamber. Samples were serially extracted for HPLC analysis and the appearance was also observed. Transition of crystal form was monitored by XRD analysis at the point of 163 hrs (only for crystals A and B) and 15 days (for all the samples) from the start. The “time” means storage time. The “temperature” is the preset temperature of the thermostatic chamber used for the storage, which was jumped up at 163 hrs from the start.

[2] = Transition of crystal B into crystal A in ethanol/water suspension (HPLC, XRD); assay type: physicochemical; settings: crystal A versus crystal B
Procedure: Five grams of (R)-3-[2-(2-amino-5-trifluoromethoxybenzamido)acetamido]-1-(6-methylindol-3-ylmethyl)pyrrolidine was suspended in 232 mL of ethanol/water (1.22/1), and the suspension was stirred for 3 hours in an oil bath at 20° C. The precipitated crystals were filtered off and dried at 50° C. under reduced pressure. Yield Amount: 4.25 g (yield: 85%)
HPLC pattern and XRD diagram were measured to confirm that the resulting crystal was crystal A of (R)-3-[2-(2-amino-5-trifluoromethoxybenzamido)acetamido]-1-(6-methylindol-3-ylmethyl)pyrrolidine.

[3] = storage 163 hrs at 40 °C (temperature then raised 40 to 60 °C)
[4] = storage 192 hrs, 60 °C from 163 hrs
[5] = storage 240 hrs, 60 °C from 163 hrs
[6] = storage 15 days, 60 °C from 163 hrs
[7] = storage time: initial value, 40 °C, glass vial covered by filter paper

Cc1ccc2c(CN3CC[C@@H](NC(=O)CNC(=O)c4cc(OC(F)(F)F)ccc4N)C3)c[nH]c2c1 [Crystal B, (R)-3-[2-(2-amino-5-trifluoromethoxybenzamido)acetamido]-1-(6-methylindol-3-ylmethyl)pyrrolidine]
Purity ([1]; storage 24 hrs, 40 °C): 99.22% | Purity ([1]; storage 71 hrs, 40 °C): 99.31% | Purity ([1]; storage 144 hrs, 40 °C): 99.22% | Crystal form (XRD) [1, 3]: Crystal B | Purity [1, 4]: 99.28% | Purity [1, 5]: 99.19% | Crystal form (XRD) [1, 6]: Crystal B | Purity [1, 6]: 99.28% | Purity [1, 7]: 99.20%

Cc1ccc2c(CN3CC[C@@H](NC(=O)CNC(=O)c4cc(OC(F)(F)F)ccc4N)C3)c[nH]c2c1 [amorphous form, (R)-3-[2-(2-amino-5-trifluoromethoxybenzamido)acetamido]-1-(6-methylindol-3-ylmethyl)pyrrolidine]
Storage stability (degradation), in words ([1]; conclusion from Table 5): degradation of amorphous form; also recorded: less storage stability compared to the crystal forms | Purity ([1]; storage 24 hrs, 40 °C): 97.78% | Purity ([1]; storage 71 hrs, 40 °C): 97.55% | Purity ([1]; storage 144 hrs, 40 °C): 97.25% | Purity [1, 4]: 95.88% | Purity [1, 5]: 94.33% | Crystal form (XRD) [1, 6]: amorphous | Purity [1, 6]: 91.14% | Purity [1, 7]: 98.03%

Cc1ccc2c(CN3CC[C@@H](NC(=O)CNC(=O)c4cc(OC(F)(F)F)ccc4N)C3)c[nH]c2c1 [Crystal A, (R)-3-[2-(2-amino-5-trifluoromethoxybenzamido)acetamido]-1-(6-methylindol-3-ylmethyl)pyrrolidine]
Relative stability of the two crystal forms [2]: higher than that of crystal B | Purity ([1]; storage 24 hrs, 40 °C): 98.89% | Purity ([1]; storage 71 hrs, 40 °C): 98.88% | Purity ([1]; storage 144 hrs, 40 °C): 98.80% | Crystal form (XRD) [1, 3]: Crystal A | Purity [1, 4]: 98.82% | Purity [1, 5]: 98.82% | Crystal form (XRD) [1, 6]: Crystal A | Purity [1, 6]: 98.75% | Purity [1, 7]: 98.79%
